Results published in patent US11542235B2, “Herbicidal 3-azaspiro[5.5] undecane-8, 10-dione compounds” (SYNGENTA PARTICIPATIONS AG, priority 2018, dated 2023).

How the values were obtained:
Type in all cases: in vivo
Setaria faberi (SETFA) = test: Glasshouse herbicidal test, pre- and post-emergence, Setaria faberi; details: 250 g/h, evaluated after 13 days, five point scale; for percentage damage caused to the plant, SETFA POST: post-emergence; for percentage damage caused to the plant, SETFA PRE: pre-emergence
Protocol: (§1) Seeds of a variety of test species are sown in standard soil in pots (Lolium perenne (LOLPE), Setaria faberi (SETFA), Alopecurus myosuroides (ALOMY), Echinochloa crus-galli (ECHCG), Avena fatua (AVEFA)). After cultivation for one day (pre-emergence) or after 8 days cultivation (post-emergence) under controlled conditions in a glasshouse (at 24/16° C., day/night; 14 hours light; 65% humidity), the plants are sprayed with an aqueous spray solution derived from the formulation of the technical active ingredient in acetone/water (50:50) solution containing 0.5% Tween 20 (polyoxyethelyene sorbitan monolaurate, CAS RN 9005-64-5). Compounds are applied at […]. The test plants are then grown in a glasshouse under controlled conditions in a glasshouse (at 24/16° C., day/night; 14 hours light; 65% humidity) and watered twice daily. After 13 days for pre and post-emergence, the test is evaluated for the percentage damage caused to the plant. The biological activities are shown in the following table on a five point scale (5=80-100%; 4=60-79%; 3=40-59%; 2=20-39%; 1=0-19%).

Avena fatua (AVEFA) = test: Glasshouse herbicidal test, pre- and post-emergence, Avena fatua; details: 250 g/h, evaluated after 13 days, five point scale; for percentage damage caused to the plant, AVEFA POST: post-emergence; for percentage damage caused to the plant, AVEFA PRE: pre-emergence
Protocol: as §1

[1] = system: Alopecurus myosuroides (ALOMY); test: Glasshouse herbicidal test, pre- and post-emergence, Alopecurus myosuroides; details: 250 g/h, evaluated after 13 days, five point scale; for percentage damage caused to the plant, ALOMY POST: post-emergence; for percentage damage caused to the plant, ALOMY PRE: pre-emergence
Protocol: as §1

[2] = system: Echinochloa crus-galli (ECHCG); test: Glasshouse herbicidal test, pre- and post-emergence, Echinochloa crus-galli; details: 250 g/h, evaluated after 13 days, five point scale; for percentage damage caused to the plant, ECHCG POST: post-emergence; for percentage damage caused to the plant, ECHCG PRE: pre-emergence
Protocol: as §1

Lolium perenne (LOLPE) = test: Glasshouse herbicidal test, pre- and post-emergence, Lolium perenne; details: 250 g/h, evaluated after 13 days, five point scale; for percentage damage caused to the plant, LOLPE POST: post-emergence; for percentage damage caused to the plant, LOLPE PRE: pre-emergence
Protocol: as §1

CC#Cc1cc(OC)c(C2C(=O)CC3(CCN(OC)CC3)CC2=O)c(OC)c1 [Compound A4]
5 (5=80-100%): percentage damage caused to the plant, SETFA POST (Setaria faberi (SETFA)) | percentage damage caused to the plant, SETFA PRE (Setaria faberi (SETFA)) | percentage damage caused to the plant, AVEFA POST (Avena fatua (AVEFA)) | percentage damage caused to the plant, AVEFA PRE (Avena fatua (AVEFA)) | percentage damage caused to the plant, ALOMY POST [1] | percentage damage caused to the plant, ALOMY PRE [1] | percentage damage caused to the plant, ECHCG POST [2] | percentage damage caused to the plant, ECHCG PRE [2] | percentage damage caused to the plant, LOLPE POST (Lolium perenne (LOLPE)) | percentage damage caused to the plant, LOLPE PRE (Lolium perenne (LOLPE))

CC#Cc1cc(C)c(C2=C(O)CC3(CCN(C(C)=O)CC3)CC2=O)c(C)c1 [Compound A17]
5 (5=80-100%): percentage damage caused to the plant, SETFA POST (Setaria faberi (SETFA)) | percentage damage caused to the plant, SETFA PRE (Setaria faberi (SETFA)) | percentage damage caused to the plant, AVEFA POST (Avena fatua (AVEFA)) | percentage damage caused to the plant, AVEFA PRE (Avena fatua (AVEFA)) | percentage damage caused to the plant, ALOMY POST [1] | percentage damage caused to the plant, ALOMY PRE [1] | percentage damage caused to the plant, ECHCG POST [2] | percentage damage caused to the plant, ECHCG PRE [2] | percentage damage caused to the plant, LOLPE POST (Lolium perenne (LOLPE)) | percentage damage caused to the plant, LOLPE PRE (Lolium perenne (LOLPE))

CC#Cc1cc(C)c(C2=C(OC(=O)OC)CC3(CCN(C(C)=O)CC3)CC2=O)c(C)c1 [Compound P5]
5 (5=80-100%): percentage damage caused to the plant, SETFA POST (Setaria faberi (SETFA)) | percentage damage caused to the plant, SETFA PRE (Setaria faberi (SETFA)) | percentage damage caused to the plant, AVEFA POST (Avena fatua (AVEFA)) | percentage damage caused to the plant, AVEFA PRE (Avena fatua (AVEFA)) | percentage damage caused to the plant, ALOMY POST [1] | percentage damage caused to the plant, ALOMY PRE [1] | percentage damage caused to the plant, ECHCG POST [2] | percentage damage caused to the plant, ECHCG PRE [2] | percentage damage caused to the plant, LOLPE POST (Lolium perenne (LOLPE)) | percentage damage caused to the plant, LOLPE PRE (Lolium perenne (LOLPE))

CC#Cc1cc(C)c(C2C(=O)CC3(CCN(C(=O)C(C)F)CC3)CC2=O)c(C)c1 (centres unmarked) [Compound A21]
5 (5=80-100%): percentage damage caused to the plant, SETFA POST (Setaria faberi (SETFA)) | percentage damage caused to the plant, SETFA PRE (Setaria faberi (SETFA)) | percentage damage caused to the plant, AVEFA POST (Avena fatua (AVEFA)) | percentage damage caused to the plant, AVEFA PRE (Avena fatua (AVEFA)) | percentage damage caused to the plant, ALOMY POST [1] | percentage damage caused to the plant, ALOMY PRE [1] | percentage damage caused to the plant, ECHCG POST [2] | percentage damage caused to the plant, ECHCG PRE [2] | percentage damage caused to the plant, LOLPE POST (Lolium perenne (LOLPE)) | percentage damage caused to the plant, LOLPE PRE (Lolium perenne (LOLPE))

CC#Cc1cc(C)c(C2=C(OC(C)=O)CC3(CCN(C(C)=O)CC3)CC2=O)c(C)c1 [Compound P4, [3-acetyl-9-(2,6-dimethyl-4-prop-1-ynyl-phenyl)-10-oxo-3-azaspiro[5.5]undec-8-en-8-yl] acetate]
5 (5=80-100%): percentage damage caused to the plant, SETFA PRE (Setaria faberi (SETFA)) | percentage damage caused to the plant, AVEFA POST (Avena fatua (AVEFA)) | percentage damage caused to the plant, AVEFA PRE (Avena fatua (AVEFA)) | percentage damage caused to the plant, ALOMY POST [1] | percentage damage caused to the plant, ALOMY PRE [1] | percentage damage caused to the plant, ECHCG POST [2] | percentage damage caused to the plant, ECHCG PRE [2] | percentage damage caused to the plant, LOLPE POST (Lolium perenne (LOLPE)) | percentage damage caused to the plant, LOLPE PRE (Lolium perenne (LOLPE))

CC#Cc1cc(C)c(C2C(=O)CC3(CCN(C(=O)C(Cl)Cl)CC3)CC2=O)c(C)c1 [Compound A28]
5 (5=80-100%): percentage damage caused to the plant, SETFA POST (Setaria faberi (SETFA)) | percentage damage caused to the plant, SETFA PRE (Setaria faberi (SETFA)) | percentage damage caused to the plant, AVEFA POST (Avena fatua (AVEFA)) | percentage damage caused to the plant, AVEFA PRE (Avena fatua (AVEFA)) | percentage damage caused to the plant, ALOMY POST [1] | percentage damage caused to the plant, ALOMY PRE [1] | percentage damage caused to the plant, ECHCG POST [2] | percentage damage caused to the plant, ECHCG PRE [2] | percentage damage caused to the plant, LOLPE POST (Lolium perenne (LOLPE)) | percentage damage caused to the plant, LOLPE PRE (Lolium perenne (LOLPE))
